Experiments:
[1] = DPPH (1,1-diphenyl-2-picryl-hydrazyl) test for eliminating free radicals; type: biochemical; conditions: effective relative concentration c(test compound)/c(DPPH) at which the DPPH free radical was 50% eliminated; methanol, absorption at 515 nm
Protocol: The activity of the exemplary compounds as free radical-capturing agents was compared with that of conventional free radical-capturing agents. In this connection, use was made of the DPPH (1,1-diphenyl-2-picryl-hydrazyl) test for eliminating free radicals.
DPPH was dissolved in methanol to give a concentration of 100 μmol/l. A series of dilutions of the exemplary compounds, Vitamin C, α-tocopherol and dibutylhydroxytoluene were prepared in methanol. Methanol served as the control. 2500 μl of the DPPH solution were mixed with 500 μl of each test solution and the decrease in the absorption at 515 nm was read until the decrease was less than 2% per hour. The activity of the test substances as free radical-capturing agents was calculated using the following equation:
Activity as free radical-capturing agent (%)=100—(absorption of the test compounds)/(absorption of the control)×100.
For each test compound, the effective relative concentration EC50 (based on the concentration of DPPH which was initially present, EC=c (test compound)/c(DPPH)) of a test compound, i.e. at which the DPPH free radical was 50% eliminated, was calculated from the activity as a free radical-capturing agent (%) in a series of dilutions of test compounds.

[2] = Rancimat accelerated autooxidation of lipids by air, soyabean oil; conditions: antioxidative index = IP(with test solution)/IP(control sample)
Protocol: (§1) The activity of the exemplary compounds as antioxidants was compared with that of conventional antioxidants. The accelerated autooxidation of lipids by air with or without antioxidant, as measured using the Rancimat appliance (Rancimat is a registered trademark belonging to Metrohm AG, Herisau, Switzerland) was used as the test system. The exemplary compounds, Vitamin C, α-tocopherol and dibutyihydroxytoluene were dissolved in methanol or acetone, and 100 μl of the respective test solution were added to a previously prepared oil sample weighing 3 g. Solvent only was added to a control sample. A constant, dry stream of air (20 I/h) was blown through the heated oil sample containing the test solution, and the volatile oxidation products (principally short-chain fatty acids such as formic and acetic acid) were collected in a recipient vessel containing water. The conductivity of this aqueous solution was measured and documented continuously. In this connection, the oxidation of (unsaturated) fats proceeds only very slowly for a while and then suddenly increases rapidly. The time which elapses until the increase is termed the induction period (IP). The antioxidative index (AOI) was obtained using the following equation: AOI=IP(with test solution)/IP(control sample). The results for the experiments in soyabean oil at 100° C. and, at 80° C., in squalene, which was purified on alumina type N and stabilized with 1 ppm α-tocopherol, are shown in Table 6: […]

[3] = Rancimat accelerated autooxidation of lipids by air, squalene; conditions: antioxidative index = IP(with test solution)/IP(control sample), squalene purified on alumina type N and stabilized with 1 ppm α-tocopherol
Protocol: as §1

| Structure (SMILES) | EC50/ (mol/mol) [1] | AOl in Soyabean oil at 100° C. containing 0.05% test substance [2] | AOl in squalene at 80° C. containing 0.005% test substance [3] |
| --- | --- | --- | --- |
| Cc1cc(C(C)(C)C)c(O)c(C(C)(C)C)c1 [Dibutylhydroxytoluene, reference compound] | 0.24 mol/mol | 4.8 | 38 |
| Cc1c(C)c2c(c(C)c1O)CC[C@@](C)(CCC[C@H](C)CCC[C@H](C)CCCC(C)C)O2 [α-Tocopherol, reference compound] | 0.25 mol/mol | 5.1 | 39 |
| COc1ccc2nc(NN)sc2c1 [6-Methoxy-2-hydrazino-1,3-benzothiazole] | – | 24 | 23 |
| O=C1O[C@H]([C@@H](O)CO)C(O)=C1O [Vitamin C, reference compound] | 0.27 mol/mol | 1.2 | 0.7 |
| NNc1nc(-c2ccccc2)cs1 [2-Hydrazino-4-phenyl-1,3-thiazole] | 0.13 mol/mol | 8.5 | 13 |
| NNc1nnc(-c2ccc(F)cc2)s1 [2-Hydrazino-5-(4-fluorophenyl)-1,3,4-thiadiazole] | 0.14 mol/mol | 15 | 38 |

More lines, main results first:

| EC50/ (mol/mol) [1] | Structure (SMILES) | AOl in Soyabean oil at 100° C. containing 0.05% test substance [2] | AOl in squalene at 80° C. containing 0.005% test substance [3] |
| --- | --- | --- | --- |
| 0.12 mol/mol | COc1cc2nc(NN)sc2cc1OC [5,6-Dimethoxy-2-hydrazino-1,3-benzothiazole] | 4.1 | 24 |
| 0.15 mol/mol | NNc1nc2ccccc2s1 [2-Hydrazino-1,3-benzothiazole] | 17 | 97 |
| 0.10 mol/mol | NNc1nc2cccnc2s1 [2-Hydrazino-thiazolo-[5,4-b]pyridine] | – | 60 |
| 0.17 mol/mol | NNc1nc2cc(S(=O)(=O)O)ccc2s1 [2-Hydrazino-1,3-benzothiazole-5-sulfonic acid] | – | – |
| 0.15 mol/mol | CC(C)(C)c1ccc2nc(NN)sc2c1 [6-tert.-Butyl-2-hydrazino-1,3-benzothiazole] | 6 | 14 |
| 0.28 mol/mol | Cc1ccc2nc(NN)sc2c1 [6-Methyl-2-hydrazino-1,3-benzothiazole] | 2.4 | 67 |
